Results as given in patent US11000635B2, “Antimicrobial compositions comprising minocycline and oxidized cellulose” (priority 2017, dated 2021).
Values after ≈ are worked out from the molar mass of the structure shown. “Also recorded” adds a separate entry of the source.

Experiments:
[1] = tested on: Staphylococcus aureus (S. aureus), Strain #6538; assay: Primary stage MIC measurement of antibiotic alone (2-fold dilutions, OD 600 nm growth curves); assay type: cell-based; settings: for MIC: Staphylococcus aureus, read-out: MIC values for S. aureus found in the present study (in-house primary MIC)
Experimental: An isolated colony of S. aureus bacteria was picked from afresh streak plate (no more than 1 week old). The colony was transferred into 3-4 ml of TSB and incubated overnight in an orbital shaker at 35° C.-37° C.
The following day, the turbidity of the actively-growing broth culture was adjusted with Calcium-adjusted Mueller Hinton broth II (MHBII) to be equivalent to that of a 0.5 McFarland standard (1×10^8 CFU/ml). The broth culture was maintained under ambient conditions prior to use.
No more than 15 minutes prior to use, the culture was further diluted 20 fold in MHBII to obtain a final 5×10^6 CFU/ml stock suspension.
The method used in this stage was based on the classic Minimum Inhibitory Concentration (MIC) measurements, as described by the Clinical and Laboratory Standards Institute (CLSI) document M07-A9: “Method for Dilution Antimicrobial Susceptibility Test for Bacteria that Grow Aerobically”. While classic MIC measurements require visual inspection of plates for bacterial growth after 18 hours, growth was monitored in the present study according to optical density (OD) at 600 nm, using an ELISA reader (MultiSkan™ FC ELISA reader, Thermo Fisher Scientific, Massachusetts, USA), thereby obtaining bacterial growth curves for tested antibiotic solutions.
A 96-well assay plate layout (Corning Cat #3596) was prepared as follows:
Columns 1 and 3-12: 100 μl of MHBII alone was added to each well.
[…]: 200 μl of a solution of antibiotic in MHBII at the highest concentration to be tested was added to each well.
A series of 2-fold dilutions was performed, wherein 100 μl of solution of antibiotic was withdrawn from each well of column 2, transferred to the corresponding well of column 3, and mixed.
The dilution was then repeated by transfer from column 3 to column 4, and so on, until column 11, when the 100 μl of solution of antibiotic withdrawn from each well of column 11 was discarded.
The plate was then incubated at 37° C. with shaking in the ELISA reader and the optical density at 600 nm was read every 20 minutes for a total of 18 hours.
The average OD reading obtained for each antibiotic concentration was calculated and plotted against time to obtain a growth curve.
The MIC was determined as the first antibiotic concentration at which […] by the end of the 18-hour period.

S. aureus [2] = assay: Tertiary stage: antimicrobial activity of antibiotic-impregnated ORC extracts (ET50, MIC); assay type: cell-based, Staphylococcus aureus; settings: for Antibiotic-impregnated ORC (tertiary) MIC: single antibiotic impregnated onto ORC pad; for Result (ET50): ORC pad
Experimental: The maximum OD is determined by bacterial growth in MHBII without the chemical.
Solutions comprising different concentrations of antibiotics to be tested were prepared in methanol.
Blank ORC pads of dimensions 1×1.5 inch, weighing between 65-75 mg (70 mg on average), in duplicate, were immersed in the antibiotic solutions and then dried using a rotary evaporator to provide “antibiotic-impregnated ORC pads”.
15 ml test tubes containing 3 ml of sterile PBS were prepared, and the antibiotic-impregnated ORC pads were immersed in the tubes and incubated for 3-5 hours at ambient temperature on a roller mixer (Stuart, Cat #SRT9D).
Each of the above extracts was filtered out using a sterile 0.8/0.2 μm syringe filter into a clean 15 ml tube. These extraction fluids are referred to herein as “antibiotic-impregnated ORC extracts”.
Briefly, ORC patches weighing on average 70 mg each were impregnated with the selected antibiotic. Antibiotic-impregnated ORC extracts were prepared by immersion and incubation in 3 ml of sterile PBS for 3 hours at ambient temperature. The ORC was then removed and any remaining ORC particles were filtered out using a […] syringe filter. This extraction fluid was then diluted 10-fold into Muller Hinton growth medium containing bacteria. Bacterial growth was monitored every 20 min for a total of 18 hours according to optical density (OD) at 600 nm, using an ELISA reader.
Since the study included many possible combinations of two antibiotics, each with their own different concentration range, a matrix of possible antibiotic concentrations was designed, and ORC pads prepared accordingly (see Table 10). Since all the possible combinations could not be fitted into one 96 well plate, a series of MIC experiments were carried out.

[3] = tested on: Staphylococcus aureus (S. aureus), Strain #6538; assay: Secondary stage: antibiotic alone or blank ORC extracted in antibiotic, bacterial growth curves (ET50); assay type: cell-based; settings: presence of ORC pads (not impregnated), read-out: MIC upon addition of a small amount of ORC to the growth medium
[4] = tested on: Staphylococcus aureus (S. aureus), Strain #6538; assay: as above; assay type: cell-based; settings: antibiotic solution with versus without ORC
Experimental: Blank ORC pads i.e. ORC pads which had not been impregnated with antibiotic (referred to herein as “blank ORC pads”), were subjected to extraction in a solution of antibiotic in PBS for three hours at ambient temperature.
Due to the acidity of ORC, which provides some antibiotic effect, the size of the pad used was small i.e. approximately 1×1.5 inch, weighing between 65-75 mg (70 mg on average) in order to prevent the ORC from affecting the final pH of the assay and therefore the growth of the bacteria.
15 ml tubes, each containing 3 ml of an antibiotic solution at a known concentration in sterile PBS, were prepared in duplicate. […]
The plate was incubated at 37° C. with shaking in the ELISA reader and the optical density at 600 nm was read every 20 minutes for a total of 18 hours.
The average and standard deviation for OD readings was calculated for each time point of the wells using Excel. […]
The average values were also entered into the GraphPad Prism program (GraphPad Software Inc., CA, USA) in order to calculate the Effective Time 50 (ET50) i.e. the time, in minutes, required for the antibiotic to induce a response halfway between the baseline and maximum, where the maximum is the bacterial growth in MHBII with PBS. This provides a quantifiable measure of the efficacy of the antibiotics tested and enables comparison of the various samples tested. […]

S. aureus [5] = settings: published values; cited from earlier work

Q: For `CCC[C@@H]1C[C@@H](C(=O)N[C@@H]([C@H]2O[C@H](SC)[C@H](O)[C@@H](O)[C@H]2O)[C@H](C)Cl)N(C)C1` [Clindamycin, clindamycin], which “MIC as single antibiotic in the absence of ORC (first stage MIC results)” value (“MIC as single antibiotic in the absence” below) [1] is on record?
A: 0.062 µg/mL

Q: And the MIC ([1]; absence of ORC)?
A: 0.062 µg/mL (≈ 0.146 µM)

Q: And the “Antibiotic-impregnated ORC (tertiary) MIC” value (“Antibiotic-impregnated ORC” for short) (S. aureus [2])?
A: 0.015 µg/mL

Q: Which “MIC as single antibiotic in the absence” value [1] does the source give for `CN(C)c1ccc(O)c2c1C[C@H]1C[C@H]3[C@H](N(C)C)C(O)=C(C(N)=O)C(=O)[C@@]3(O)C(O)=C1C2=O` [Minocycline, minocycline] here?
A: 0.25 µg/mL

Q: And the MIC ([1]; absence of ORC)?
A: 0.25 µg/mL (≈ 0.546 µM)

Q: And the “Result (ET50)” value (S. aureus [2]; 0.54 μg Minocycline + 0.00 μg Clindamycin per gr ORC)?
A: 637.6 min

Q: And the “Result (ET50)” value (S. aureus [2]; 0.54 μg Minocycline + 0.00 μg Rifampin per gr ORC)?
A: 585.4 min

Q: And the “Result (ET50)” value (S. aureus [2]; 1.08 μg Minocycline + 0.00 μg Clindamycin per gr ORC)?
A: 1072 min

Q: And the “Result (ET50)” value (S. aureus [2]; 1.08 μg Minocycline + 0.00 μg Rifampin per gr ORC)?
A: 799.9 min

Q: What about the “Result (ET50)” value (S. aureus [2]; 2.16 μg Minocycline + 0.00 μg Clindamycin per gr ORC) of the same molecule?
A: >2000 min

Q: And the “Result (ET50)” value (S. aureus [2]; 2.16 μg Minocycline + 0.00 μg Rifampin per gr ORC)?
A: >2000 min

Q: What about the “Result (ET50)” value (S. aureus [2]; 2.70 μg Minocycline + 0.00 μg Clindamycin per gr ORC) of the same molecule?
A: >2000 min

Q: What about the “Result (ET50)” value (S. aureus [2]; 2.70 μg Minocycline + 0.00 μg Rifampin per gr ORC) of the same molecule?
A: >2000 min

Q: And the MIC (S. aureus [2]; Staphylococcus aureus, single antibiotic impregnated onto ORC, read-out: MIC of minocycline together with ORC, ORC impregnated with minocycline)?
A: 0.0126 µg/mL

Q: What about the “Minocycline concentration sufficient for growth inhibition of S. aureus in combination” value (S. aureus [2]; impregnated onto ORC together with rifampin or clindamycin) of the same molecule?
A: 1.26 ng/mL

Q: What about the “Antibiotic-impregnated ORC” value (S. aureus [2]) of the same molecule?
A: 0.0126 µg/mL

Q: What about the “Fold reduction of the MIC when impregnated onto ORC in combination with an additional antibiotic” value (S. aureus [2]; versus single antibiotic in the absence of ORC (first stage MIC)) of the same molecule?
A: 200

Q: What about the MIC [3] of the same molecule?
A: 0.05 µg/mL

Q: With `CO[C@H]1/C=C/O[C@@]2(C)Oc3c(C)c(O)c4c(O)c(c(/C=N/N5CCN(C)CC5)c(O)c4c3C2=O)NC(=O)/C(C)=C\C=C\[C@H](C)[C@H](O)[C@@H](C)[C@@H](O)[C@@H](C)[C@H](OC(C)=O)[C@@H]1C` [Rifampin, rifampin] as the molecule, how does the “MIC as single antibiotic in the absence” value [1] read?
A: 0.015 µg/mL

Q: And the MIC ([1]; absence of ORC)?
A: 0.015 µg/mL (≈ 0.0182 µM)

Q: What about the “Effect of addition of ORC on the antibiotic activity” value [4] of the same molecule?
A: ORC interferes with the antibiotic activity of rifampin; also recorded: impaired by ORC and MIC was increased

Q: What about the “Result (ET50)” value (S. aureus [2]; 0.00 μg Minocycline + 31.41 μg Rifampin per gr ORC) of the same molecule?
A: 406.8 min

Q: What about the “Result (ET50)” value (S. aureus [2]; 0.00 μg Minocycline + 62.82 μg Rifampin per gr ORC) of the same molecule?
A: 442.3 min

Q: And the “Result (ET50)” value (S. aureus [2]; 0.00 μg Minocycline + 125.64 μg Rifampin per gr ORC)?
A: 450.4 min

Q: And the “Result (ET50)” value (S. aureus [2]; 0.00 μg Minocycline + 157.05 μg Rifampin per gr ORC)?
A: 418.1 min

Q: What about the “Rifampin concentration sufficient for growth inhibition of S. aureus in combination” value (S. aureus [2]; impregnated onto ORC together with 1.26 ng/ml minocycline) of the same molecule?
A: 366.5 ng/mL

Q: What about the “Antibiotic-impregnated ORC” value (S. aureus [2]) of the same molecule?
A: 0.733 µg/mL

Q: What about the “Change of antimicrobial activity when impregnated onto the ORC pad” value (S. aureus [2]; versus first stage MIC) of the same molecule?
A: activity was impaired

Q: And the “MIC values for S. aureus according to CLSI” value (S. aureus [5])?
A: 0.004 to 0.015 µg/mL

Q: Which “MIC values for S. aureus found in the present study (in-house primary MIC)” value ([1]; absence of ORC) does the source give for Gentamycin [Gentamicin] here?
A: 0.25 µg/mL

Q: And the “Effect of addition of ORC on the antibiotic activity” value [4]?
A: decreased antibiotic activity; also recorded: impaired by ORC and MIC was increased

Q: What about the “MIC values for S. aureus according to CLSI” value (S. aureus [5]) of the same molecule?
A: 0.12 to 1 µg/mL
